Results as given in US20240247035A1, “STAPLED ANTIMICROBIAL PEPTIDES (STAMPS) AND USES THEREOF” (Lytica Therapeutics, Inc., priority 2021, published 2024).
Values after ≈ are worked out from the molar mass of the structure shown. Where two headings read alike, the source gives them in different places. Bridge positions count the residues as written; N and C are the ends. Square brackets hold non-standard residues; d marks the D form. Peptide text beside a SMILES is read from it. S5 = C=CCCC[C@](C)(N)C(=O)O

Assays:
A. baumannii = assay type: cell-based, Acinetobacter baumannii; details: 20-24 hours at 37° C., no visible bacterial growth
Procedure: (§1) Antimicrobial Activity Assay: The following microbroth dilution protocol was adapted from CLSI to determine the minimum inhibitory concentration (MIC) of StAMPs. Briefly, Mueller-Hinton broth (MHB) or cation-adjusted Mueller-Hinton broth (MHB II) was prepared and autoclaved. Then, a colony of bacterial cells was picked and grown overnight in broth at 37° C. and then diluted and allowed to grow again for 3-4 hours. Serial dilutions of peptide stocks in water (10 μl) were prepared using clear round-bottom polypropylene 96-well plates. Then 90 μl of bacteria in broth was added to give a final inoculum of 5×10^5 CFU/ml. The plates were then covered with porous tape to reduce evaporation and incubated for 20-24 hours at 37° C. The MIC was the minimum peptide concentration at which no visible bacterial growth was observed.

[1] = 48 hours cytotoxicity assay (CellTiter-Glo), liver toxicity; assay type: cell-based; details: human
In short: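 HepG2 cells (EMEM, 10% FBS) attached 4 h, then exposed to serial dilutions of StAMPs (from 5 mg/mL water stock) or vehicle for 48 h at 37° C. Viability read by CellTiter-Glo luminescence after 10 min at room temperature.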

S. aureus = assay type: cell-based, Staphylococcus aureus; details: 20-24 hours at 37° C., no visible bacterial growth
Procedure: as §1

[2] = 90 minute cytotoxicity assay (LDH release), renal toxicity; assay type: cell-based; details: human
In short: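 RPTEC in growth-factor-supplemented MEM were exposed overnight-plated to serial dilutions of StAMPs (from 5 mg/mL water stock) or vehicle for 90 min at 37 °C. Released LDH in medium was measured with LDH reagent for 10 min, absorbance at 490 nm.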

E. coli = assay type: cell-based, Escherichia coli; details: 20-24 hours at 37° C., no visible bacterial growth
Procedure: as §1

P. aeruginosa = assay type: cell-based, Pseudomonas aeruginosa; details: 20-24 hours at 37° C., no visible bacterial growth
Procedure: as §1

K. pneumoniae = assay type: cell-based, Klebsiella pneumoniae; details: 20-24 hours at 37° C., no visible bacterial growth
Procedure: as §1

SMILES | Minimum Inhibitory Concentration (MIC) A. baumannii (A. baumannii) | IC50 at 48 hours ([1]; 48 hours of incubation, CellTiter-Glo, read-out: Inhibitory Concentration at 50% Cytotoxicity (IC50) Human Liver Cells (HepG2)) | Minimum Inhibitory Concentration (MIC) S. aureus (S. aureus) | IC50 at 90 min ([2]; 90 minutes of incubation, LDH, read-out: Inhibitory Concentration at 50% Cytotoxicity (IC50) Human Renal Proximal Tubule Epithelial Cells (RPTEC)) | Minimum Inhibitory Concentration (MIC) E. coli (E. coli) | Minimum Inhibitory Concentration (MIC) P. aeruginosa (P. aeruginosa) | Minimum Inhibitory Concentration (MIC) K. pneumoniae (K. pneumoniae) | IC50 at 48 hours [1] | IC50 at 90 min [2]
CC[C@H](C)[C@@H]1NC(=O)[C@@](C)(NC(=O)[C@H](CC(C)C)NC(=O)[C@H](CC(N)=O)NC(=O)[C@H](CCCCN)NC(=O)[C@H](CCCCN)NC(=O)[C@H](CCCCN)NC(=O)[C@H](CCCCN)NC(=O)CNC(=O)[C@H](CCCCN)NC(=O)[C@]2(C)CCCC=CCCC[C@](C)(NC(=O)CN)C(=O)N[C@@H](Cc3ccccc3)C(=O)N[C@@H](CO)C(=O)N[C@@H](CCCCN)C(=O)N2)CCCC=CCCC[C@@](C)(C(=O)N[C@@H](CCCCN)C(=O)NCC(N)=O)NC(=O)CNC(=O)[C@H](CO)NC1=O [compound 28] (H-G[S5]FSK[S5]KGKKKKNL[S5]ISG[S5]KG-NH2; staple 2-6, 15-19) | 6 µg/mL | > 200 µg/mL | >64 µg/mL | > 200 µg/mL | 64 µg/mL | 6 µg/mL | >64 µg/mL |  | 
CC[C@H](C)[C@@H]1NC(=O)[C@@](C)(NC(=O)[C@H](CCCCN)NC(=O)[C@H](CCCCN)NC(=O)CNC(=O)[C@H](CCCCN)NC(=O)[C@]2(C)CCCC=CCCC[C@](C)(NC(=O)CN)C(=O)N[C@@H](Cc3ccccc3)C(=O)N[C@@H](CO)C(=O)N[C@@H](CCCCN)C(=O)N2)CCCC=CCCC[C@@](C)(C(=O)N[C@@H](CCCCN)C(=O)NCC(N)=O)NC(=O)CNC(=O)[C@H](CO)NC1=O [compound 42] (H-G[S5]FSK[S5]KGKK[S5]ISG[S5]KG-NH2; staple 2-6, 11-15) |  |  |  |  |  |  |  | > 200 µg/mL | > 200 µg/mL
CC[C@H](C)[C@H](NC(=O)[C@H](CCCCN)NC(=O)[C@H](CCCCN)NC(=O)CNC(=O)[C@H](CCCCN)NC(=O)[C@]1(C)CCCC=CCCC[C@](C)(NC(=O)CN)C(=O)N[C@@H](Cc2ccccc2)C(=O)N[C@@H](CO)C(=O)N[C@@H](CCCCN)C(=O)N1)C(=O)N[C@@H](CCCCN)C(=O)N[C@@H](CC(N)=O)C(=O)N[C@@]1(C)CCCC=CCCC[C@@](C)(C(=O)N[C@@H](CC(C)C)C(=O)N[C@@H](CCCCN)C(=O)NCC(N)=O)NC(=O)[C@H](CO)NC(=O)[C@H]([C@@H](C)CC)NC(=O)[C@H](CC(C)C)NC1=O [compound 33] (H-G[S5]FSK[S5]KGKKIKN[S5]LIS[S5]LKG-NH2; staple 2-6, 14-18) |  |  |  |  |  |  |  | 13 µg/mL (≈ 5.54 µM) | 11 µg/mL (≈ 4.69 µM)
CC[C@H](C)[C@H](NC(=O)[C@H](CCCCN)NC(=O)[C@H](CCCCN)NC(=O)[C@H](CCCCN)NC(=O)[C@H](CCCCN)NC(=O)[C@]1(C)CCCC=CCCC[C@](C)(NC(=O)CN)C(=O)N[C@@H](Cc2ccccc2)C(=O)N[C@@H](CO)C(=O)N[C@@H](CCCCN)C(=O)N1)C(=O)N[C@@H](CCCCN)C(=O)N[C@@H](CC(N)=O)C(=O)N[C@@H](CC(C)C)C(=O)N[C@@]1(C)CCCC=CCCC[C@@](C)(C(=O)N[C@@H](CCCCN)C(=O)NCC(N)=O)NC(=O)CNC(=O)[C@H](CO)NC(=O)[C@H]([C@@H](C)CC)NC1=O [compound 27] (H-G[S5]FSK[S5]KKKKIKNL[S5]ISG[S5]KG-NH2; staple 2-6, 15-19) |  |  |  |  |  |  |  | 35 µg/mL (≈ 14.8 µM) | 42 µg/mL (≈ 17.8 µM)
